Measurements as given in PMC8145107 (Pharmaceutics, 2021).
Several values for one entry are separate records, joined by “and”; a condition that tells them apart may be missing. Identical values can stand only once.

Experiments:
[1] = test system: HFL-1: human embryonic lung cell line; test: Cytotoxicity in normal mammalian cells (HFL-1); type: cell-based; details: HFL1, HFL-1, 24 h, 0.01-100 μM, read-out: IC50 of compounds in various normal mammalian cells
[2] = test system: L929: NCTC clone 929, mouse fibroblast cell line; test: Cytotoxicity in normal mammalian cells (L929); type: cell-based; details: L929, 24 h, 0.01-100 μM, read-out: IC50 of compounds in various normal mammalian cells
[3] = test system: CHO-K1: Chinese hamster ovary cell line; test: Cytotoxicity in normal mammalian cells (CHO-K1); type: cell-based; details: Cricetulus griseus; CHO-K1, 24 h, 0.01-100 μM; read-out: IC50 of compounds in various normal mammalian cells
[4] = test system: VERO: African green monkey kidney cell line; test: Cytotoxicity in normal mammalian cells (VERO); type: cell-based; details: Chlorocebus sabaeus, 24 h, 0.01-100 μM, read-out: IC50 of compounds in various normal mammalian cells
normal mammalian cells = test: Cytotoxicity, range over the normal mammalian cell panel; type: cell-based; details: HFL-1, L929, NIH3T3, CHO-K1, VERO; 24 h; read-out: IC50 values, range over the normal cell lines
hERG K+ channel = hERG K+ channel binding assay (fluorescence polarization, red fluorescent tracer); details: human, probe red fluorescent hERG channel ligand tracer; concentration treated 10 μM
Experimental: To perform the Ames test of J2 and NA49, the number of revertant colonies was counted on each compound-treated plate at the maximum concentration at which the compound was soluble and nontoxic to the S. typhimurium tester strains (Supplementary Material S1). The ratio of the number of revertant colonies in the treated plate to colonies in the vehicle plate. […] For the hERG K^+ channel binding assay of J2 and NA49, the inhibitory activity against the hERG K^+ channel and its ligand was measured using a red fluorescent hERG channel ligand tracer. The final activity was assessed as a decrease in the degree of fluorescence polarization. […]
For hERG K+ channel binding […]
assay, measuring the inhibitory activity against the hERG K+ channel and its ligand using red fluorescent hERG channel ligand tracer. Final activity was assessed by the decrease in fluorescence polarization degree.

[5] = Kinetic solubility by nephelometry; type: physicochemical; details: aqueous buffer, kinetic from dmso stock; pH 7, nephelometry
Experimental: (§1) Permeability was evaluated with a parallel artificial membrane permeability (PAMPA) assay using an artificially generated lipid-infused membrane.

[6] = Log P by pH-metric method; type: physicochemical
PAMPA permeability assay = type: in vitro ADME; details: for Papp: read-out: Cell Permeability Log Papp (converted)
Experimental: as §1

[7] = Liver microsomal phase I stability assay (mouse); type: in vitro ADME; details: mouse liver microsomes
[8] = Liver microsomal phase I stability assay (human); type: in vitro ADME; details: human liver microsomes
[9] = In vitro human plasma stability; type: in vitro ADME; details: for Half-life predicted from in vitro plasma stability: human plasma
Experimental: as §1

CYP450 2C19 = CYP450 2C19 (Homo sapiens, UniProt P33261); test: CYP450 enzyme inhibition, 2C19; type: in vitro ADME; details: compound 0.05~50 μM; read-out: IC50 against CYP450 isotype 2C19
Experimental: as §1

ICR mice = test: Single-dose IV toxicity in ICR mice; type: in vivo, mouse; details: 14 days, n = 4
From the text: Male Sprague–Dawley rats (7-week-old) and male Institute of Cancer Research (ICR) mice (5-week-old) were purchased from Orient Bio (Seongnam, Korea) and Samtako Bio (Osan, Korea), respectively. The experimental animals were housed under conventional conditions and fasted overnight before surgery for catheterization. All procedures for animal experiments were in accordance with the guidelines by the Ewha Woman’s University Institutional Animal Care and Use Committee (IACUC, 15-049 and 16-062), Korea.
For single-dose toxicity study of each drug, ICR mice were divided into 6 groups of control (0.9% normal saline), vehicle, and four dosages of each inhibitor (n = 4 mice per group). Both inhibitors dissolved in the same solvent system as the pharmacokinetic study were administered to the mice by caudal vein injection at doses of 2.5, 7.5, 15 and 30 mg/kg. After a single administration, all mice were observed daily for general conditions including behavior, hair, eyes, and nose. In addition, body weight was measured on days 0, 3, 7, and 14 following IV administration.

[10] = test system: HSP27 recombinant protein; test: HSP27 cross-linking with recombinant protein (Western blot); type: biochemical; details: 10 μM, 3 h
Experimental: For polyacrylamide gel electrophoresis (PAGE) and Western blot (WB) analysis, cells were lysed with radioimmunoprecipitation assay (RIPA) buffer (50 mM Tris-HCl [pH 7.5], 150 mM NaCl, 1% NP-40, 0.1% sodium dodecyl sulfate (SDS), and 1% sodium deoxycholate) supplemented with 1 mM Na3VO4, 1 mM dithiothreitol (DTT), 1 mM phenyl-methyl-sulfonyl fluoride (PMSF), and protease inhibitor cocktail (Calbiochem). The samples were boiled for 5 min, and equal amounts of protein were analyzed by SDS-PAGE. […]
Figure S3. […] (A) HSP25 WT protein was pretreated with NAC (N-acetyl-L-cysteine) at 20 mM for 30 min and then treated with J2 or NA49 at 10 μM. After 3 h, the dimerization of proteins was altered. ( B) NCI-H460 cells were tr eated with J2 or NA49 (0, 1, 5, 10 and 20 μM) for 24 h, and cell lysates were detected by Western blot analysis. […]

CYP1A2 = target: T1, CYP1A2 (Homo sapiens, UniProt P05177); test: biochemical
T1 sequence (P05177 1-516): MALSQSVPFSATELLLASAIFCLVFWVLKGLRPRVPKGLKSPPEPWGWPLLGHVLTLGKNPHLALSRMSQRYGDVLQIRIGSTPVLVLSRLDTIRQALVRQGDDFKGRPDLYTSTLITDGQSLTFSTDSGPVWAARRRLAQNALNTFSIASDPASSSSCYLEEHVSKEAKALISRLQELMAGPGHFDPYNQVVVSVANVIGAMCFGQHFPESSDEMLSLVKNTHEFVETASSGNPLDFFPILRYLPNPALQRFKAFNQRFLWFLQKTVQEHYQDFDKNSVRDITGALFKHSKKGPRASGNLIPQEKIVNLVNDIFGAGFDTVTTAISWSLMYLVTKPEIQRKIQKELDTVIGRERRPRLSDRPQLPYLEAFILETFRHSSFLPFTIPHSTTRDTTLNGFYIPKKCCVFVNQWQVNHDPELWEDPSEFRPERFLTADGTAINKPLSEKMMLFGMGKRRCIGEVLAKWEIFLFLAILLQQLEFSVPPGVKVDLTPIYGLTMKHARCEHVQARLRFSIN

CYP450 3A4 = CYP450 3A4 (Homo sapiens, UniProt P08684); test: CYP450 enzyme inhibition, 3A4
Chain of CYP450 3A4 (P08684 whole entry): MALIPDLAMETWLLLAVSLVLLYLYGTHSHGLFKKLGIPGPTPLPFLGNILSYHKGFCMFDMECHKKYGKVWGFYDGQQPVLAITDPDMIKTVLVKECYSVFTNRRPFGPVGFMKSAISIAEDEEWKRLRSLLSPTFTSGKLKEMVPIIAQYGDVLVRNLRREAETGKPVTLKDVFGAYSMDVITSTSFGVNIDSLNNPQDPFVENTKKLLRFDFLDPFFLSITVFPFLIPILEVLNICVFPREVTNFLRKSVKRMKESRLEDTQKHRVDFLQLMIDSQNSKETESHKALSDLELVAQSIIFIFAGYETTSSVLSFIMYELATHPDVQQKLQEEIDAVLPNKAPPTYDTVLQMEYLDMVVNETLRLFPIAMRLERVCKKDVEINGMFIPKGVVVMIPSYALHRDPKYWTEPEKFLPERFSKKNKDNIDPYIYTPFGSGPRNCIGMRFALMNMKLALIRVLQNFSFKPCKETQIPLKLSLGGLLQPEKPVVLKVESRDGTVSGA

Chain of CYP450 2C19 (P33261 whole entry): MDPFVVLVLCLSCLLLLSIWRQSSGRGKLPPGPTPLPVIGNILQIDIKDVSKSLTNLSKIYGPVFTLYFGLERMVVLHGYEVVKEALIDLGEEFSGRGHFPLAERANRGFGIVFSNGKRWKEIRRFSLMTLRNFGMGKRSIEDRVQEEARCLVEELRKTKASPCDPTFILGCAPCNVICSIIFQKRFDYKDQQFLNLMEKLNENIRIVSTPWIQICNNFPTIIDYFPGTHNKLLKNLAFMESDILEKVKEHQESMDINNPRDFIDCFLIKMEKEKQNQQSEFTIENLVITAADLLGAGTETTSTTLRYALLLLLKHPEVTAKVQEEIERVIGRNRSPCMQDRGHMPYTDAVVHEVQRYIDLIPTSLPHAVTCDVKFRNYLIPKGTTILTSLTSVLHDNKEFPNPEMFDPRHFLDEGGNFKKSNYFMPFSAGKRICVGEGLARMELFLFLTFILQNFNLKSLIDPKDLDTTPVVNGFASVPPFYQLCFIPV

SMILES | IC50 [1] | IC50 [2] | IC50 [3] | IC50 [4] | IC50 (normal mammalian cells) | inhibition at 10 μM (hERG K+ channel) | solubility kinetic [5] | logP [6] | Cell permeability, rating (PAMPA permeability assay) | Papp (PAMPA permeability assay) | In vitro Metabolic Stability (% of remaining after 30 min) [7] | In vitro Metabolic Stability (% of remaining after 30 min) [8] | Half-life predicted from in vitro plasma stability [9] | In vitro Human Plasma Stability at 37 °C (% of remaining after 1 h) ([9]; treated with 0.5 μg/mL) | In vitro Human Plasma Stability at 37 °C (% of remaining after 1 h) ([9]; treated with 5 μg/mL) | IC50 (CYP450 2C19) | Survival Rate (%) (ICR mice; 2.5 mg/kg) | Survival Rate (%) (ICR mice; 7.5 mg/kg) | Survival Rate (%) (ICR mice; 15 mg/kg) | Survival Rate (%) (ICR mice; 30 mg/kg) | further results
COc1ccc(-c2coc3cc(OCC4CS4)ccc3c2=O)c(OC)c1 (stereo not shown) [NA49] | 94.5 µM | 91.9 µM | 90.4 µM | 83.6 µM | 83.6 to 96.5 µM | 39 ± 3.9% | 90.2 µM and 33.4 µg/mL | 3.04 | moderate | 324 nm/s | 2.4 ± 0.95% | 24.9 ± 0.77% | > 6 h | 146.6% and 146.6 ± 0.01% | 101.4% and 101.4 ± 0.13% | > 50 µM | 100% | 100% | 100% | 75% | HSP27 cross-linking activity (altered dimerization) [10]: stronger cross-linking activity than J2; IC50 (CYP1A2): > 50 µM; IC50 (CYP450 3A4): > 50 µM
Cc1cc(=O)c2c(O)cc(OCC3CS3)cc2o1 (stereo not shown) [J2] | > 100 µM | > 100 µM | > 100 µM | 91.8 µM | ≥ 91.8 µM | 8.7 ± 2.22% | 73.2 µM and 19.5 µg/mL | 2.78 | low | 126 nm/s | 6.2 ± 2.55% | 47.8 ± 4.50% | about 3 h | 76.2% and 76.2 ± 0.72% | 82.7% and 82.7 ± 0.73% | > 50 µM | 100% | 100% | 100% | 100% | HSP27 cross-linking activity (altered dimerization) [10]: Altered dimerization of HSP27; IC50 (CYP1A2): 0.1 µM; IC50 (CYP450 3A4): > 50 µM
